In series [1] the test system is orexin receptor. The settings on record: injection; amyloid precursor protein transgenic mice; cited from earlier work.
Series [2] deals with orexin receptor. The settings on record: during glucose tolerance test; cited from earlier work.
The subject of series [3] is orexin receptor. The settings on record: intake of suvorexant; cited from earlier work.
Another series deals with HEK293T cells. The experiment in a line: WST-8 Cell Proliferation Assay (dehydrogenase activity, cell growth). In kind it is cell-based. The note with it: 100 μg/mL, HEK293T cells of Example 1; compared to positive and negative control; FIG. 2. As for the experimental part:
For the pyrroloquinoline quinone disodium salt-added group in Example 1, WST-8 Cell Proliferation Assay Kit (Cayman Chemical Company) was used to confirm the cell growth after addition of pyrroloquinoline quinone disodium salt. The measurement was performed by a method according to an attached protocol. The dehydrogenase activity is known to be in proportion to the number of live cells. The kit utilizes this principle and measures the dehydrogenase activity released in the medium from the cells.
For orientation: Tetrazolium dyes change colour on reduction, which living cells bring about.

For a further series, the target named is Orexin 2 Receptor (Homo sapiens, UniProt O43614). The settings on record: 100 μg/mL test substance, 1 h pre-incubation, then 50 nM orexin-A for 24 hours; HEK293T cells; n=3; FIG. 1.
Chain of Orexin 2 Receptor (O43614 whole entry): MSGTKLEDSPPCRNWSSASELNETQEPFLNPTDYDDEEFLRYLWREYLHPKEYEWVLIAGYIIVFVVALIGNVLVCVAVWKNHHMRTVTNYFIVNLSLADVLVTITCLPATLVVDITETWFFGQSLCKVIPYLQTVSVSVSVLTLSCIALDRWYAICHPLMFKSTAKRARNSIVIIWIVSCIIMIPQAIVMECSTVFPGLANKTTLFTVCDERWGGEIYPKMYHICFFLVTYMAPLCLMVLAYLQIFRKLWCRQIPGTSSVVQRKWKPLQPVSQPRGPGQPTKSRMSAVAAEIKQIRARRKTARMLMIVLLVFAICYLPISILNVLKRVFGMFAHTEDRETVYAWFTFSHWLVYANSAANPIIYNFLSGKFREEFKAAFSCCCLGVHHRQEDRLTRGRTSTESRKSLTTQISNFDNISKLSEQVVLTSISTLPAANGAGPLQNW

Method for Orexin 2 Receptor: The orexin receptor antagonist activity of a test substance was measured using an accessory to Orexin 2 Receptor Reporter Assay Kit (Cayman Chemical Company).
In this evaluation system, cells that express orexin receptors at cell surfaces are used. Binding of the agonist (orexin) to the orexin receptor causes secretion of secreted alkaline phosphatase (SEAP). Secreted SEAP is reacted with an alkaline phosphatase substrate, and the enzyme activity of SEAP is measured using a luminometer. A substance having orexin receptor antagonist action reduces the enzyme activity.
(1) HEK293T cells were prepared at a concentration of 2.5×10^5 cells/mL using Dulbecco's modified Eagle medium (high glucose content) (Dulbecco's Modified Eagle's Medium-high glucose, with 4500 mg/L glucose, L-glutamine, sodium pyruvate, and sodium bicarbonate, liquid, sterile-filtered, suitable for cell culture) (Sigma-Aldrich) to which fetal bovine serum (FBS) was added to a final concentration of 10%.
(2) The medium containing HEK293T cells prepared in (1) was seeded at 200 μL per well in Orexin 2 Receptor Reverse Transfection Strip Plate.
(3) Incubation was performed at 5% CO2 and 37° C. for 16 hours. […]
(7) The enzyme (SEAP) activity of the supernatant was measured in accordance with a protocol attached to Orexin 2 Receptor Reporter Assay Kit (Cayman Chemical Company). […]

As to `CNC(=O)[C@@H](c1ccccc1)N1CCc2cc(OC)c(OC)cc2[C@@H]1CCc1ccc(C(F)(F)F)cc1` [almorexant], the “amyloid β level and amyloid plaque formation” value in the series with orexin receptor [1] was “decrease in amyloid β level and in amyloid plaque formation”. Regarding `Cc1ccc(-n2nccn2)c(C(=O)N2CCN(c3nc4cc(Cl)ccc4o3)CC[C@H]2C)c1` [suvorexant], the “rise in blood sugar levels” value in the series with orexin receptor [2] is given as “suppressing the rise in blood sugar levels”. Also, the “sleep latency, wake after sleep onset, total sleep duration, sleep efficiency” value with orexin receptor [3] is “decreased sleep latency and objective wake after sleep onset and have increased total sleep duration and sleep efficiency”. As for `O=C(O)c1cc(C(=O)O)c2c(n1)C(=O)C(=O)c1cc(C(=O)O)[nH]c1-2.[Na].[Na]` [pyrroloquinoline quinone disodium salt], the “number of cells (dehydrogenase activity relative to negative control)” value in the series on HEK293T cells is reported as “did not show a decrease in the number of cells”. Moreover, on Orexin 2 Receptor, the “orexin receptor antagonist action (SEAP enzyme activity relative to negative control)” value is “orexin receptor antagonist action equivalent to that exerted by addition of 1 μM suvorexant”.

(Values after patent US20220088004A1, “COMPOSITION FOR COMPETITIVE INHIBITION OF OREXIN RECEPTORS” (SUNTORY HOLDINGS LIMITED, priority 2019, published 2022).)
